The source of these data is article PMC5698418 (Nature Communications, 2017).

The test system of the assay is BDNF-induced nuclear Arc expression in primary cortical neurons. Put plainly: Chemogenomic screen: high-content image-based assay of BDNF-induced nuclear Arc expression (96-well). It counts as cell-based, mouse. The gist of the method:
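DIV13 mouse primary cortical neurons (30,000 cells/well) are treated with compound at 16.7 µM and BDNF, in three biological replicates. Arc and acetyl-H3K9 are immunostained and imaged at ×40, and nuclear Arc signal is quantified automatically using acetyl-H3K9 as the nuclear mask.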

Setting [1] is: chemogenomic (SMART) screen, BDNF-induced nuclear Arc expression, primary cortical neurons, BDNF control 19.5.
[2] abbreviates: nuclear Arc-positive cells relative to DMSO + BDNF control, negative values = decrease.
Where [3] appears, read: BDNF-induced nuclear Arc expression, primary cortical neurons, chemogenomic screen.
Where [4] appears, read: nuclear Arc-positive cells relative to DMSO control (BDNF), negative = decrease.

Where a name gives a salt, the structure may show the parent alone. Read-outs that look alike come from different tables or passages of the source.

As to `C=C[C@@]1(C)CC(=O)[C@]2(O)[C@@]3(C)[C@@H](O)CCC(C)(C)[C@@H]3[C@H](O)[C@H](OC(C)=O)[C@@]2(C)O1` [Forskolin], the “Percentage of cell with nuclear Arc immunostaining above 2σ threshold” value (“Percentage of cell” for short) under setting [1] came out at 29.3%. Further, the “Fold-change — Normalized to DMSO control (BDNF)” value (“Fold-change — Normalized” for short) under setting [2] amounted to 1.5 fold.

Regarding `CN1CCc2c(c3ccccc3n2Cc2ccc(C(=O)NO)cc2)C1` [Tubastatin A], the “Percentage of cell” value under setting [1] is 21.3%. Also, the “Fold-change — Normalized” value under setting [2] is listed as 1.1 fold.

`CCC1(c2ccccc2)C(=O)NCNC1=O` [Primidone]: the “Percentage of cell” value under setting [1] was 17.3%.

As to `Cc1ccc(Sc2ccccc2N2CCNCC2)c(C)c1` [Vortioxetine], under setting [3], the “Percentage of cell” value came to 0.0%.

Consider `OCCOCCN1CCN(C2=Nc3ccccc3Sc3ccccc32)CC1` [Quetiapine fumarate], for which, under setting [1], the “Percentage of cell” value is 25.9%. In addition, the “Fold-change — Normalized” value under setting [2] is 1.3 fold.

Take `O=C1[C@@H]2[C@H]3CC[C@H](C3)[C@@H]2C(=O)N1C[C@@H]1CCCC[C@H]1CN1CCN(c2nsc3ccccc23)CC1` [Lurasidone]: the “Percentage of cell” value under setting [1] is reported as 39.0%. For the same compound, under setting [2], the “Fold-change — Normalized” value came out at 2.0 fold.

Turning to `CC(=C(CCO)SSCC1CCCO1)N(C=O)Cc1cnc(C)nc1N` (stereo in doubt) [Fursultiamine], the “Percentage of cell” value is 15.4%.

As for `Oc1noc2c1CCNC2` [Gaboxadol], the “Percentage of cell” value turned out to be 13.6%.

In the case of `C#CCN[C@@H]1CCc2ccccc21` [Rasagiline], the “Percentage of cell” value under setting [1] turned out to be 14.8%.

As to `C[C@@H]1C(=O)O[C@H]2C[C@@]34[C@H]5C[C@@H](C(C)(C)C)[C@]36[C@@H](OC(=O)[C@@H]6O)O[C@@]4(C(=O)O5)[C@]21O` [Ginkgolide A], the “Percentage of cell” value under setting [1] turned out to be 19.3%.

For `CCN1CCCC1CNC(=O)c1cc(S(=O)(=O)CC)c(N)cc1OC` (stereo not shown) [Amisulpride], the “Percentage of cell” value under setting [1] amounted to 24.6%. Moreover, the “Fold-change — Normalized” value under setting [2] stood at 1.3 fold.

In the case of `CCc1ccc(CCOc2ccc(CC3SC(=O)NC3=O)cc2)nc1` (stereo not shown) [Pioglitazone], the “Percentage of cell” value under setting [1] was found to be 15.4%.

As to `CN1[C@H]2C[C@H](OC(=O)[C@H](CO)c3ccccc3)C[C@@H]1[C@@H](O)C2` [Anisodamine], the “Percentage of cell” value is on record as 25.5%. Under setting [2], the “Fold-change — Normalized” value was found to be 1.3 fold.

Regarding `OC(CCN1CCCC1)(c1ccccc1)C1CCCCC1` (stereo not shown) [Procyclidine hydrochloride], the “Percentage of cell” value under setting [1] is on record as 19.3%.

For the compound `CCN1CCCC1CNC(=O)c1cc(S(N)(=O)=O)ccc1OC` (stereo not shown) [Sulpiride], under setting [1], the “Percentage of cell” value is 26.5%. Under setting [2], the “Fold-change — Normalized” value was determined as 1.4 fold.

For the compound `CC(C)CC(N(C)C)C1(c2ccc(Cl)cc2)CCC1` (stereo not shown) [Sibutramine], the “Percentage of cell” value turned out to be 21.3%. The “Fold-change — Normalized” value under setting [2] was determined as 1.1 fold.

As for `OC(CCN1CCCCC1)(c1ccccc1)C1CCCCC1` (stereo not shown) [Benzhexol hydrochloride], under setting [1], the “Percentage of cell” value was found to be 20.4%. Besides, the “Fold-change — Normalized” value under setting [2] stood at 1.0 fold.

As to `CN(C)CCC[C@@]1(c2ccc(F)cc2)OCc2cc(C#N)ccc21` [Escitalopram oxalate], under setting [1], the “Percentage of cell” value worked out at 26.3%. Under setting [2], the “Fold-change — Normalized” value worked out at 1.4 fold.

Take `Cl.O=C(O)C1CCCN(CCC=C(c2ccccc2)c2ccccc2)C1` (stereo not shown) [SKF 89976A hydrochloride]: the “Percentage of cell” value is 21.6%. Moreover, the “Fold-change — Normalized” value under setting [2] amounted to 1.1 fold.

As for `CN1CCCC(CC2c3ccccc3Sc3ccccc32)C1` (stereo not shown) [Metixene], under setting [3], the “Percentage of cell” value turned out to be 6.7%.

Turning to `CN1CCC[C@@H]1Cc1c[nH]c2ccc(CCS(=O)(=O)c3ccccc3)cc12` [Eletriptan], the “Percentage of cell” value under setting [3] was found to be 3.7%.

Take `CN1CCc2cc3c(cc2[C@H]1[C@@H]1OC(=O)c2c1ccc1c2OCO1)OCO3` [(+)-Bicuculline]: the “Percentage of cell” value turned out to be 20.9%. For the same compound, under setting [2], the “Fold-change — Normalized” value is reported as 1.1 fold.

In the case of `O=C(NCCN1CCOCC1)c1ccc(Cl)cc1` [Moclobemide], the “Percentage of cell” value under setting [3] turned out to be 8.9%.

Consider `CNC(C)C1CCC(N)C(OC2C(N)CC(N)C(OC3OCC(C)(O)C(NC)C3O)C2O)O1` (stereo not shown) [Gentamicin], for which the “Percentage of cell” value under setting [3] is recorded as 10.3%.

In the case of `CC(C)n1c(=O)n(C(=O)NC2CC3CCC(C2)N3C)c2ccccc21` (stereo not shown) [BIMU-8], the “Percentage of cell” value amounted to 16.3%. Besides, the “Fold-change — Normalized” value under setting [2] was -1.2 fold.

On to `C[C@H](O)[C@H](O)[C@H]1CNc2nc(N)[nH]c(=O)c2N1` [Sapropterin], for which, under setting [1], the “Percentage of cell” value came to 49.8%. Moreover, the “Fold-change — Normalized” value under setting [2] was 2.6 fold.

For `CC1Nc2ccc(Cl)cc2S(=O)(=O)N1` (stereo not shown) [IDRA-21], the “Percentage of cell” value under setting [1] is 12.2%. Moreover, under setting [2], the “Fold-change — Normalized” value was -1.6 fold.

As for `COc1ccc2[nH]cc(CCNC(C)=O)c2c1` [Melatonin], the “Percentage of cell” value under setting [1] is reported as 25.2%. Further, under setting [2], the “Fold-change — Normalized” value came to 1.3 fold.

On to `CCOc1ccc2nc(S(N)(=O)=O)sc2c1` [Ethoxzolamide], for which, under setting [3], the “Percentage of cell” value came to 8.4%.

With `C1CCN2C[C@@H]3C[C@@H](CN4CCCC[C@@H]34)[C@H]2C1` [Sparteine], the “Percentage of cell” value worked out at 25.6%. Moreover, the “Fold-change — Normalized” value under setting [2] is recorded as 1.3 fold.

As to `Clc1cccc(Cl)c1N=C1NCCN1` [Clonidine], under setting [1], the “Percentage of cell” value was 12.2%.

`O=C(O)C(O)C(O)C(=O)O.c1cnc2cc3c(cc2n1)[C@@H]1CNC[C@H]3C1` [Chantix]: the “Percentage of cell” value under setting [3] worked out at 10.1%. Under setting [4], the “Fold-change — Normalized” value is listed as -1.9 fold.

In the case of `CN(C)CC(c1ccc(O)cc1)C1(O)CCCCC1` (stereo not shown) [Desvenlafaxine], the “Percentage of cell” value under setting [1] amounted to 33.0%. Further, under setting [2], the “Fold-change — Normalized” value is 1.7 fold.

For `O=C(O)[C@H]1O[C@@H](Oc2cc3oc(-c4ccccc4)cc(=O)c3c(O)c2O)[C@H](O)[C@@H](O)[C@@H]1O` [Baicalin], the “Percentage of cell” value under setting [1] came to 34.6%. Besides, under setting [2], the “Fold-change — Normalized” value was determined as 1.8 fold.

With `N[C@@H]1C[C@H]1c1ccccc1` [Tranylcypromine hydrochloride], under setting [1], the “Percentage of cell” value amounted to 26.6%. Also, the “Fold-change — Normalized” value under setting [2] amounted to 1.4 fold.

Take `C#CCN(C)CCCOc1ccc(Cl)cc1Cl` [Clorgyline]: under setting [3], the “Percentage of cell” value was 7.4%. Besides, the “Fold-change — Normalized” value under setting [4] is -2.6 fold.

`NCC(CC(=O)O)c1ccc(Cl)cc1` (stereo not shown) [Baclofen]: the “Percentage of cell” value under setting [1] is 28.6%. The “Fold-change — Normalized” value under setting [2] was 1.5 fold.

In the case of `N=C(N)NC(=O)Cc1c(Cl)cccc1Cl` [Guanfacine hydrochloride], under setting [1], the “Percentage of cell” value is on record as 20.9%. For the same compound, the “Fold-change — Normalized” value under setting [2] is 1.1 fold.

As for `O=C(CCCN1CCC(O)(c2ccc(Br)cc2)CC1)c1ccc(F)cc1` [Bromperidol], the “Percentage of cell” value under setting [1] is recorded as 28.9%. Moreover, under setting [2], the “Fold-change — Normalized” value was 1.5 fold.

On to `CN1CCN2c3ccccc3Cc3ccccc3C2C1` (stereo not shown) [Mianserin], for which, under setting [1], the “Percentage of cell” value amounted to 18.5%.

As to `O=C(/C=C/C=C/c1ccc2c(c1)OCO2)N1CCCCC1` [Piperine], the “Percentage of cell” value under setting [1] worked out at 18.5%.

`O=C(c1ccc2nccnc2c1)N1CCCCC1` [Ampalex]: the “Percentage of cell” value under setting [1] came to 40.8%. Besides, the “Fold-change — Normalized” value under setting [2] turned out to be 2.1 fold.

For the compound `CCOC(=O)C1=C[C@]2(CC)CCCN3CCc4c(n1c1ccccc41)[C@@H]32` [Vinpocetine], under setting [1], the “Percentage of cell” value was 12.5%.

With `Cc1ccsc1C(=CCCN1CCC[C@@H](C(=O)O)C1)c1sccc1C` [Tiagabine], the “Percentage of cell” value under setting [3] is reported as 7.4%.

With `CCNC1=Nc2ccc(Cl)cc2C(C)(c2ccccc2)O1` (stereo not shown) [Etifoxine], the “Percentage of cell” value stood at 0.0%.

For the compound `CN(C)CCCN1c2ccccc2Sc2ccc(Cl)cc21` [Chlorpromazine], the “Percentage of cell” value under setting [3] was found to be 0.0%.

For the compound `CN1CCN2c3ncccc3Cc3ccccc3C2C1` (stereo not shown) [Mirtazapine], the “Percentage of cell” value under setting [3] was found to be 4.5%.

As for `COc1ccc(/C=C/c2cc(OC)cc(=O)o2)cc1` [Yangonin], the “Percentage of cell” value under setting [1] is recorded as 29.7%. The “Fold-change — Normalized” value under setting [2] is recorded as 1.5 fold.

As to `CCOc1ccccc1OC(c1ccccc1)C1CNCCO1` (stereo not shown) [Reboxetine], the “Percentage of cell” value is 8.6%.

Take `COC1=CC(=O)O[C@@H](/C=C/c2ccccc2)C1` [Kavain]: the “Percentage of cell” value is recorded as 34.3%. Further, the “Fold-change — Normalized” value under setting [2] is given as 1.8 fold.

`NC(=O)c1cn(Cc2c(F)cccc2F)nn1` [Rufinamide]: under setting [1], the “Percentage of cell” value came to 20.3%. Further, the “Fold-change — Normalized” value under setting [2] is reported as 1.0 fold.

For the compound `CCN(CC)CCOC(=O)c1ccc(N)cc1` [Procaine hydrochloride], under setting [1], the “Percentage of cell” value was 37.1%. Also, the “Fold-change — Normalized” value under setting [2] was found to be 1.9 fold.
